{
  "source": "paper PMC4820706",
  "about": "“Discovery of a small-molecule binder of the oncoprotein gankyrin that modulates gankyrin activity in the cell” (Scientific Reports, 2016)",
  "key": {"gankyrin [1]": {"target": "T1, gankyrin (Homo sapiens, UniProt O75832)", "T1 construct": "gene PSMD10; His-tagged full-length human gankyrin", "T1 sequence (O75832 1-226)": "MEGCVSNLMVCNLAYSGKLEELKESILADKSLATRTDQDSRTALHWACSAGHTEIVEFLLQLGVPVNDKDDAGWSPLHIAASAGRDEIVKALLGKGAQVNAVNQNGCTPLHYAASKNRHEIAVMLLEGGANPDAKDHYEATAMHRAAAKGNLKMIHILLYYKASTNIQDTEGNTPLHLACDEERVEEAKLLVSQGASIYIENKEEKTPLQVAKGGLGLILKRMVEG", "assay": "ITC (Kd […], stoichiometry […]); also label-free MST (Kd […]), thermal shift, 1H-15N HSQC NMR", "format": "binding"}, "gankyrin [2]": {"target": "T1, gankyrin", "assay": "ITC", "format": "binding"}},
  "data": [
    {"smiles": "COC(=O)c1ccc(-n2cc(CCCOS(=O)(=O)c3ccc(C)cc3)nn2)cc1", "note": "[cjoc42]", "values": [
      {"measurement": "Kd", "setting": "gankyrin [1]", "value": "0.58 ± 0.07", "unit": "µM"}
    ]},
    {"smiles": "CCCNC(=O)c1ccc(-n2cc(CCCNS(=O)(=O)c3ccc(C)cc3)nn2)cc1", "note": "[compound 8]", "values": [
      {"measurement": "Kd", "setting": "gankyrin [2]", "value": "~10", "unit": "µM"}
    ]},
    {"smiles": "COC(=O)c1ccc(-n2cc(CNS(=O)(=O)c3ccc4ccccc4c3)nn2)cc1", "note": "[compound 12]", "values": [
      {"measurement": "Kd", "setting": "gankyrin [2]", "value": "~56", "unit": "µM"}
    ]}
  ]
}
